Earlier results in patent publication US20040038863A1, “Medical indication” (priority 2002, published 2004).

Conditions: in postmenopausal women; background value used to set the washout period

In the case of `C=C1C[C@@H]2[C@H](CC[C@]3(C)C(=O)CC[C@@H]23)[C@@]2(C)C=CC(=O)C=C12` [exemestane, 6-methylenandrosta-1,4-diene-3,17-dione], the terminal elimination half-life is given as “approximately 24 hours”.
